Measurements from the NIST ThermoML archive (doi:10.1021/je7003116).

Test: mn = molality of the nth substance listed, in mol/kg
Conditions: 101 kPa, Liquid; for electrical conductivity: Alternating current cell with electrodes

CC(=O)CC(c1ccccc1)c1c([O-])c2ccccc2oc1=O.[Na+] (stereo not given) [warfarin sodium] + O
Conditions	electrical conductivity [S/m]	mass density [kg/m3]
303.15 K, m1 = 0.176	–	1009.57
303.15 K, m1 = 0.2	–	1011.47
303.15 K, m1 = 0.225	–	1013.56
303.15 K, m1 = 0.25	–	1015.65
303.15 K, m1 = 0.275	–	1017.69
303.15 K, m1 = 0.3	–	1019.77
303.15 K, m1 = 0.325	–	1021.79
303.15 K, m1 = 0.35	–	1023.81
303.15 K, m1 = 0.375	–	1025.71
303.15 K, m1 = 0.3999	–	1027.67
313.15 K, m1 = 0.005	0.0299	–
313.15 K, m1 = 0.00576	–	992.687
313.15 K, m1 = 0.006	0.0358	–
313.15 K, m1 = 0.00695	–	992.784
313.15 K, m1 = 0.007	0.0416	–
313.15 K, m1 = 0.00759	–	992.836
313.15 K, m1 = 0.008	0.0474	–
313.15 K, m1 = 0.00857	–	992.916
313.15 K, m1 = 0.009	0.0532	–
313.15 K, m1 = 0.00988	–	993.022
313.15 K, m1 = 0.01	0.059	–
313.15 K, m1 = 0.02	0.1131	–
313.15 K, m1 = 0.0241	–	994.171
313.15 K, m1 = 0.04	0.216	–
313.15 K, m1 = 0.047	–	995.977
313.15 K, m1 = 0.06	0.314	–
313.15 K, m1 = 0.0719	–	997.928
313.15 K, m1 = 0.08	0.401	–
313.15 K, m1 = 0.0984	–	999.945
313.15 K, m1 = 0.1	0.489	–
313.15 K, m1 = 0.125	0.595	1001.91
313.15 K, m1 = 0.15	0.694	1003.72
313.15 K, m1 = 0.175	0.79	–
313.15 K, m1 = 0.176	–	1005.74
313.15 K, m1 = 0.2	0.88	1007.59
313.15 K, m1 = 0.225	0.963	1009.61
313.15 K, m1 = 0.25	1.046	1011.64
313.15 K, m1 = 0.275	1.13	1013.62
313.15 K, m1 = 0.3	1.206	1015.64
313.15 K, m1 = 0.325	–	1017.6
313.15 K, m1 = 0.35	–	1019.56
313.15 K, m1 = 0.375	–	1021.4
313.15 K, m1 = 0.4009	–	1023.31
323.15 K, m1 = 0.005	0.0327	–
323.15 K, m1 = 0.00585	–	988.498
323.15 K, m1 = 0.006	0.039	–
323.15 K, m1 = 0.007	0.0454	–
323.15 K, m1 = 0.00702	–	988.591
323.15 K, m1 = 0.00767	–	988.642
323.15 K, m1 = 0.008	0.0516	–
323.15 K, m1 = 0.0087	–	988.722
323.15 K, m1 = 0.009	0.0576	–
323.15 K, m1 = 0.01	0.0638	–
323.15 K, m1 = 0.01001	–	988.824
323.15 K, m1 = 0.02	0.1211	–
323.15 K, m1 = 0.0243	–	989.947
323.15 K, m1 = 0.04	0.233	–
323.15 K, m1 = 0.0469	–	991.708
323.15 K, m1 = 0.06	0.338	–
323.15 K, m1 = 0.072	–	993.609
323.15 K, m1 = 0.08	0.429	–
323.15 K, m1 = 0.0985	–	995.582
323.15 K, m1 = 0.1	0.523	–
323.15 K, m1 = 0.125	0.634	997.493
323.15 K, m1 = 0.15	0.734	999.248
323.15 K, m1 = 0.175	0.83	–
323.15 K, m1 = 0.1765	–	1001.22
323.15 K, m1 = 0.2	0.921	1003.02
323.15 K, m1 = 0.225	1.008	1004.99
323.15 K, m1 = 0.25	1.091	1006.96
323.15 K, m1 = 0.275	1.171	1008.89
323.15 K, m1 = 0.3	1.245	1010.86
323.15 K, m1 = 0.325	–	1012.77
323.15 K, m1 = 0.35	–	1014.68
323.15 K, m1 = 0.375	–	1016.47
323.15 K, m1 = 0.4021	–	1018.32
